# Values quoted from earlier work as cited in PubChem BioAssay AID1259409 (Chemical Carcinogenesis Research Information System (CCRIS), 2018).
# Tested on: rodent chemically induced tumor inhibition, incidence and multiplicity
# Assay: CCRIS tumor inhibitor studies
# Settings: Dose [Inhibitor]: 0, Route [Inhibitor]: ORAL
structure (smiles),measurement,setting,value
C[C@]12CC[C@H](O)CC1=CC[C@@H]1[C@@H]2CC[C@]2(C)C(=O)CC[C@@H]12,"tumour outcome (control, treated, inhibition, significance)","Carcinogen: N-BUTYL-N-(4-HYDROXYBUTYL)NITROSAMINE, 3817-11-6, 0.6% IN DIET BEGINNING 3 D POST CARCINOGEN TREATMENT AND CONTINUING FOR 32 WK (STUDY DURATION: 36 WK), Species: RAT, Strain/Sex: F344/MALE, Target Tissue: Type of Lesion: URINARY BLADDER: PAPILLOMA, Dose [Carcinogen]: 0.05% IN DRINKING WATER FOR 4 WK, Promoter: BUTYLATED HYDROXYANISOLE, 25013-16-5","12/15 (80%), 6/15 (40%), 50%, p<0.05"
same,"tumour outcome (control, treated, inhibition, significance)","Carcinogen: N-METHYL-N'-NITRO-N-NITROSOGUANIDINE, 70-25-7, 55 PPM IN DIET FOR 6 MO BEGINNING 3 MO POST CARCINOGEN TREATMENT (STUDY DURATION: 9 MO), Species: FISH, Strain/Sex: RAINBOW TROUT/MALE,FEMALE, Target Tissue: Type of Lesion: STOMACH: TUMOR, Dose [Carcinogen]: 35 PPM IN WATER FOR 30 MIN ONCE, Promoter: NONE USED","38%, 34%, 11%, not significant"
same,"tumour outcome (control, treated, inhibition, significance)","Carcinogen: N-METHYL-N'-NITRO-N-NITROSOGUANIDINE, 70-25-7, 55 PPM IN DIET FOR 6 MO BEGINNING 3 MO POST CARCINOGEN TREATMENT (STUDY DURATION: 9 MO), Species: FISH, Strain/Sex: RAINBOW TROUT/MALE,FEMALE, Target Tissue: Type of Lesion: SWIN BLADDER: TUMOR, Dose [Carcinogen]: 35 PPM IN WATER FOR 30 MIN ONCE, Promoter: NONE USED","13%, 3%, 77%, p<0.05"
same,"tumour outcome (control, treated, inhibition, significance)","Carcinogen: N-METHYL-N'-NITRO-N-NITROSOGUANIDINE, 70-25-7, 111 PPM IN DIET FOR 6 MO BEGINNING 3 MO POST CARCINOGEN TREATMENT (STUDY DURATION: 9 MO), Species: FISH, Strain/Sex: RAINBOW TROUT/MALE,FEMALE, Target Tissue: Type of Lesion: STOMACH: TUMOR, Dose [Carcinogen]: 35 PPM IN WATER FOR 30 MIN ONCE, Promoter: NONE USED","38%, 27%, 29%, not significant"
same,"tumour outcome (control, treated, inhibition, significance)","Carcinogen: N-METHYL-N'-NITRO-N-NITROSOGUANIDINE, 70-25-7, 111 PPM IN DIET FOR 6 MO BEGINNING 3 MO POST CARCINOGEN TREATMENT (STUDY DURATION: 9 MO), Species: FISH, Strain/Sex: RAINBOW TROUT/MALE,FEMALE, Target Tissue: Type of Lesion: SWIM BLADDER: TUMOR, Dose [Carcinogen]: 35 PPM IN WATER FOR 30 MIN ONCE, Promoter: NONE USED","13%, 3%, 77%, p<0.05"
same,"tumour outcome (control, treated, inhibition, significance)","Carcinogen: N-METHYL-N'-NITRO-N-NITROSOGUANIDINE, 70-25-7, 222 PPM IN DIET FOR 6 MO BEGINNING 3 MO POST CARCINOGEN TREATMENT (STUDY DURATION: 9 MO), Species: FISH, Strain/Sex: RAINBOW TROUT/MALE,FEMALE, Target Tissue: Type of Lesion: STOMACH: TUMOR, Dose [Carcinogen]: 35 PPM IN WATER FOR 30 MIN ONCE, Promoter: NONE USED","38%, 31%, 18%, not significant"
same,"tumour outcome (control, treated, inhibition, significance)","Carcinogen: N-METHYL-N'-NITRO-N-NITROSOGUANIDINE, 70-25-7, 222 PPM IN DIET FOR 6 MO BEGINNING 3 MO POST CARCINOGEN TREATMENT (STUDY DURATION: 9 MO), Species: FISH, Strain/Sex: RAINBOW TROUT/MALE,FEMALE, Target Tissue: Type of Lesion: SWIM BLADDER: TUMOR, Dose [Carcinogen]: 35 PPM IN WATER FOR 30 MIN ONCE, Promoter: NONE USED","13%, 3%, 77%, p<0.05"
same,"tumour outcome (control, treated, inhibition, significance)","Carcinogen: N-METHYL-N'-NITRO-N-NITROSOGUANIDINE, 70-25-7, 444 PPM IN DIET FOR 6 MO BEGINNING 3 MO POST CARCINOGEN TREATMENT (STUDY DURATION: 9 MO), Species: FISH, Strain/Sex: RAINBOW TROUT/MALE,FEMALE, Target Tissue: Type of Lesion: STOMACH: TUMOR, Dose [Carcinogen]: 35 PPM IN WATER FOR 30 MIN ONCE, Promoter: NONE USED","38%, 36%, 5%, not significant"
same,"tumour outcome (control, treated, inhibition, significance)","Carcinogen: N-METHYL-N'-NITRO-N-NITROSOGUANIDINE, 70-25-7, 444 PPM IN DIET FOR 6 MO BEGINNING 3 MO POST CARCINOGEN TREATMENT (STUDY DURATION: 9 MO), Species: FISH, Strain/Sex: RAINBOW TROUT/MALE,FEMALE, Target Tissue: Type of Lesion: SWIM BLADDER: TUMOR, Dose [Carcinogen]: 35 PPM IN WATER FOR 30 MIN ONCE, Promoter: NONE USED","13%, 8%, 38%, not significant"
same,"tumour outcome (control, treated, inhibition, significance)","Carcinogen: N-METHYL-N'-NITRO-N-NITROSOGUANIDINE, 70-25-7, 888 PPM IN DIET FOR 6 MO BEGINNING 3 MO POST CARCINOGEN TREATMENT (STUDY DURATION: 9 MO), Species: FISH, Strain/Sex: RAINBOW TROUT/MALE,FEMALE, Target Tissue: Type of Lesion: STOMACH: TUMOR, Dose [Carcinogen]: 35 PPM IN WATER FOR 30 MIN ONCE, Promoter: NONE USED","38%, 26%, 32%, not significant"
same,"tumour outcome (control, treated, inhibition, significance)","Carcinogen: N-METHYL-N'-NITRO-N-NITROSOGUANIDINE, 70-25-7, 888 PPM IN DIET FOR 6 MO BEGINNING 3 MO POST CARCINOGEN TREATMENT (STUDY DURATION: 9 MO), Species: FISH, Strain/Sex: RAINBOW TROUT/MALE,FEMALE, Target Tissue: Type of Lesion: SWIM BLADDER: TUMOR, Dose [Carcinogen]: 35 PPM IN WATER FOR 30 MIN ONCE, Promoter: NONE USED","13%, 6%, 54%, not significant"
same,"tumour outcome (control, treated, inhibition, significance)","Carcinogen: N-METHYL-N-NITROSOUREA, 684-93-5, 0.1% IN DIET FOR DURATION OF STUDY BEGINNING 1 WK PRIOR TO CARCINOGEN DOSE (STUDY DURATION: 187 D), Species: RAT, Strain/Sex: SPRAGUE-DAWLEY/FEMALE, Target Tissue: Type of Lesion: MAMMARY GLAND: CARCINOMA, Dose [Carcinogen]: 50 MG/KG ONCE AT 50 D OF AGE, Promoter: NONE USED","100%, 68%, 32%, p<0.05"
same,"tumour outcome (control, treated, inhibition, significance)","Carcinogen: N-METHYL-N-NITROSOUREA, 684-93-5, 0.2% IN DIET FOR 2 WK BEGINNING 1 WK PRIOR TO CARCINOGEN DOSE (STUDY DURATION: 187 D), Species: RAT, Strain/Sex: SPRAGUE-DAWLEY/FEMALE, Target Tissue: Type of Lesion: MAMMARY GLAND: CARCINOMA, Dose [Carcinogen]: 50 MG/KG ONCE AT 50 D OF AGE, Promoter: NONE USED","100%, 100%, 0%, not significant"
same,"tumour outcome (control, treated, inhibition, significance)","Carcinogen: N-METHYL-N-NITROSOUREA, 684-93-5, 0.2% IN DIET FOR DURATION OF STUDY BEGINNING 1 WK POST CARCINOGEN DOSE (STUDY DURATION: 180 D), Species: RAT, Strain/Sex: SPRAGUE-DAWLEY/FEMALE, Target Tissue: Type of Lesion: MAMMARY GLAND: CARCINOMA, Dose [Carcinogen]: 50 MG/KG ONCE AT 50 D OF AGE, Promoter: NONE USED","100%, 67%, 33%, p<0.05"
same,"tumour outcome (control, treated, inhibition, significance)","Carcinogen: N-METHYL-N-NITROSOUREA, 684-93-5, 0.2% IN DIET FOR DURATION OF STUDY BEGINNING 1 WK PRIOR TO CARCINOGEN DOSE (STUDY DURATION: 187 D), Species: RAT, Strain/Sex: SPRAGUE-DAWLEY/FEMALE, Target Tissue: Type of Lesion: MAMMARY GLAND: CARCINOMA, Dose [Carcinogen]: 50 MG/KG ONCE AT 50 D OF AGE, Promoter: NONE USED","100%, 48%, 52%, p<0.05"
